Where two headings read alike, the source gives them in different places.

This experiment has as its target T1, FimH (Escherichia coli, UniProt Q1R2J4).
T1 construct: endogenous in cells; host or cells: type 1 piliated UPEC bacteria
Description: cell-based. Particulars: for HAI Titer EC>90: Table 1; for EC90: read-out: HA 50% titer EC90; for activity in the hemagglutination assay (no activity up to concentration): glucosides. Set-up: species or system UPEC.
Description: In some embodiments, activity of the compound is measured using hemmagglutination titer of guinea pig red blood cells. Hemagglutination of guinea pig red blood cells by type1 piliated UPEC is dependent upon FimH mannose binding ability and serial dilutions allow a quantitative analysis.
Biological activity against FimH was evaluated using a guinea pig red blood cell-based hemagglutination (HA) assay (ref) in which the concentration of the mannoside on reducing agglutination by 50% was used as the primary endpoint (50% HA titer).
Hemagglutination of guinea pig red blood cells by type1 piliated UPEC is dependent upon FimH mannose binding ability.

As to “2-(4-chlorophenoxy)-6-(hydroxymethyl)tetrahydropyran-3,4,5-triol [Compound 22]”, the “increase in activity relative to 14a” value is listed as around 8 fold and the “HAI Titer EC>90” value was found to be 32.000 µM. Besides, under “Table 10, read-out: HA 50% Titer”, the EC50 turned out to be 32 µM. Moreover, the “increase in avidity relative to the expected potency of 500 nM” value (based on two monomeric units of 14a) was 4 fold. Also, the EC50 (read-out: HA titer) was 0.13 µM.

Take `CC(=O)Nc1ccccc1OC1OC(CO)C(O)C(O)C1O` (centres unmarked) [Compound 3, N-[2-[3,4,5-trihydroxy-6-(hydroxymethyl)tetrahydropyran-2-yl]oxyphenyl]acetamide]: the “HAI Titer EC>90” value came out at 125.000 µM.

As for `O=C(O)c1cccc(O[C@H]2O[C@H](CO)[C@@H](O)[C@H](O)[C@@H]2O)c1` [Compound 3l], the EC50 is 60 µM and the “lost potency relative to matched pair methyl ester 3j” value is 10 fold.

In the case of `N#Cc1ccccc1OC1OC(CO)C(O)C(O)C1O` (centres unmarked) [Compound 5, 2-[3,4,5-trihydroxy-6-(hydroxymethyl)tetrahydropyran-2-yl]oxybenzonitrile], the EC50 turned out to be 6 µM, the “improvement in potency relative to parent phenyl mannoside 3a” value is on record as “greater than 5 fold” and the “HAI Titer EC>90” value is 6.000 µM.

Regarding `COC(=O)c1ccc(OC2OC(CO)C(O)C(O)C2O)cc1` (centres unmarked) [Compound 7, methyl 4-[3,4,5-trihydroxy-6-(hydroxymethyl)tetrahydropyran-2-yl]oxybenzoate], the “HAI Titer EC>90” value was 8.000 µM.

Broadly, the EC90 is the point of the concentration-response curve where the effect stands at 90%. On to `O=C1Cc2cc(O[C@H]3O[C@H](CO)[C@@H](O)[C@H](O)[C@@H]3O)ccc2O1` [Compound 7a], for which the EC90 worked out at 8 µM.

`OC[C@H]1O[C@H](Oc2ccc3ccccc3c2)[C@@H](O)[C@@H](O)[C@@H]1O` [Compound 7b]: the 90% effect concentration (EC90) was found to be 6 µM.

On to `O=c1[nH]c2ccc(O[C@H]3O[C@H](CO)[C@@H](O)[C@H](O)[C@@H]3O)cc2o1` [Compound 7c], for which the 90% effect concentration (EC90) stood at 4 µM.

Consider `COC(=O)c1cc2cc(O[C@H]3O[C@H](CO)[C@@H](O)[C@H](O)[C@@H]3O)ccc2s1` [Compound 7d], for which the EC90 came to 2 µM.

On to `COC(=O)c1cc2ccc(O[C@H]3O[C@H](CO)[C@@H](O)[C@H](O)[C@@H]3O)cc2s1` [Compound 7e], for which the 90% effect concentration (EC90) was found to be 2 µM.

On to `COC(=O)c1ccc(-c2cccc(O[C@H]3O[C@H](CO)[C@@H](O)[C@H](O)[C@@H]3O)c2)cc1` [Compound 8b], for which the EC90 stood at 6 µM.

As to `O=C(c1ccccc1)c1cccc(O[C@H]2O[C@H](CO)[C@@H](O)[C@H](O)[C@@H]2O)c1` [Compound 8d], the concentration for an effect of 90% (EC90) was determined as 8 µM.

As to `OC[C@H]1O[C@H](Oc2ccc(-c3cccnc3)cc2)[C@@H](O)[C@@H](O)[C@@H]1O` [Compound 8g], the EC90 was 2 µM.

As to `OC[C@H]1O[C@H](Oc2ccc(-c3ccncc3)cc2)[C@@H](O)[C@@H](O)[C@@H]1O` [Compound 8h], the EC90 was determined as 2 µM.

In the case of `COC(=O)Cc1ccc(OC2OC(CO)C(O)C(O)C2O)cc1` (centres unmarked) [Compound 9, methyl 2-[4-[3,4,5-trihydroxy-6-(hydroxymethyl)tetrahydropyran-2-yl]oxyphenyl]acetate], the EC50 came to 30 µM and the “HAI Titer EC>90” value was 30.000 µM.

Turning to `COC(=O)c1cc(OC2OC(CO)C(O)C(O)C2O)cc(C(=O)OC)c1` (centres unmarked) [Compound 10, dimethyl 5-[3,4,5-trihydroxy-6-(hydroxymethyl)tetrahydropyran-2-yl]oxybenzene-1,3-dicarboxylate], the “HAI Titer EC>90” value stood at 2.000 µM.

Turning to `COC(=O)Cc1cc(OC2OC(CO)C(O)C(O)C2O)ccc1O` (centres unmarked) [Compound 11, methyl 2-[2-hydroxy-5-[3,4,5-trihydroxy-6-(hydroxymethyl)tetrahydropyran-2-yl]oxy-phenyl]acetate], the “HAI Titer EC>90” value came out at 15.000 µM.

For the compound `COC(=O)c1cccc(-c2ccc(O[C@H]3O[C@H](CO)[C@@H](O)[C@H](O)[C@H]3O)cc2)c1` [Compound 11a], the “activity in the hemagglutination assay (no activity up to concentration)” value is recorded as above 2.5 mM.

With `COC(=O)c1cccc(-c2ccc(O[C@@H]3O[C@H](CO)[C@@H](O)[C@H](O)[C@H]3O)cc2)c1` [Compound 11b], the “activity in the hemagglutination assay (no activity up to concentration)” value is given as above 2.5 mM.

For the compound `O=[N+]([O-])c1cccc(OC2OC(CO)C(O)C(O)C2O)c1` (centres unmarked) [Compound 12, 2-(hydroxymethyl)-6-(3-nitrophenoxy)tetrahydropyran-3,4,5-triol], the EC50 amounted to 16 µM and the “HAI Titer EC>90” value came out at 16.000 µM.

Consider `O=[N+]([O-])c1ccc(COC2OC(CO)C(O)C(O)C2O)cc1` (centres unmarked) [Compound 13, 2-(hydroxymethyl)-6-[(4-nitrophenyl)methoxy]tetrahydropyran-3,4,5-triol], for which the EC50 was 60 µM; the “decrease in potency relative to matched pairs 3a and 3b” value is on record as 2 fold; the “HAI Titer EC>90” value came to 60.000 µM.

On to `N#Cc1ccccc1-c1ccc(O[C@H]2O[C@H](CO)[C@@H](O)[C@H](O)[C@@H]2O)cc1` [Compound 14d], for which the 90% effect concentration (EC90) came to 2 µM.

With `N#Cc1ccc(-c2ccc(O[C@H]3O[C@H](CO)[C@@H](O)[C@H](O)[C@@H]3O)cc2)cc1` [Compound 14f], the EC90 was determined as 8 µM.

Take `OCc1ccccc1-c1ccc(O[C@H]2O[C@H](CO)[C@@H](O)[C@H](O)[C@@H]2O)cc1` [Compound 14g]: the EC50 came to 16 µM, the “less potent than meta analog 14h” value is listed as “over 5 fold” and the EC90 was 16 µM.

As to `OCc1cccc(-c2ccc(O[C@H]3O[C@H](CO)[C@@H](O)[C@H](O)[C@@H]3O)cc2)c1` [Compound 14h], the EC90 amounted to 3 µM.

In the case of `OCc1ccc(-c2ccc(O[C@H]3O[C@H](CO)[C@@H](O)[C@H](O)[C@@H]3O)cc2)cc1` [Compound 14i], the EC90 worked out at 6 µM.

`OC[C@H]1O[C@H](Oc2ccc(-c3ccccc3O)cc2)[C@@H](O)[C@@H](O)[C@@H]1O` [Compound 14j]: the EC90 is 8 µM.

For the compound `OC[C@H]1O[C@H](Oc2ccc(-c3cccc(O)c3)cc2)[C@@H](O)[C@@H](O)[C@@H]1O` [Compound 14k], the EC90 turned out to be 4 µM.

Regarding `COc1cccc(-c2ccc(O[C@H]3O[C@H](CO)[C@@H](O)[C@H](O)[C@@H]3O)cc2)c1` [Compound 14n], the concentration for an effect of 90% (EC90) was 1.5 µM.

Consider `CS(=O)(=O)Nc1ccccc1-c1ccc(O[C@H]2O[C@H](CO)[C@@H](O)[C@H](O)[C@@H]2O)cc1` [Compound 14o], for which the EC90 worked out at 12 µM.

Consider `CNS(=O)(=O)c1ccccc1-c1ccc(O[C@H]2O[C@H](CO)[C@@H](O)[C@H](O)[C@@H]2O)cc1` [Compound 14q], for which the 90% effect concentration (EC90) was found to be 4 µM.

Regarding `CNS(=O)(=O)c1cccc(-c2ccc(O[C@H]3O[C@H](CO)[C@@H](O)[C@H](O)[C@@H]3O)cc2)c1` [Compound 14r], the concentration for an effect of 90% (EC90) came out at 1 µM.

For the compound `O=[N+]([O-])c1ccc(-c2ccc(O[C@H]3O[C@H](CO)[C@@H](O)[C@H](O)[C@@H]3O)cc2)cc1` [Compound 14t], the concentration for an effect of 90% (EC90) is 2 µM.

For `NC(=O)c1ccccc1-c1ccc(O[C@H]2O[C@H](CO)[C@@H](O)[C@H](O)[C@@H]2O)cc1` [Compound 14u], the EC90 is 6 µM.

Take `NC(=O)c1cccc(OC2OC(CO)C(O)C(O)C2O)c1` (centres unmarked) [Compound 15, 3-[3,4,5-trihydroxy-6-(hydroxymethyl)tetrahydropyran-2-yl]oxybenzamide]: the EC50 turned out to be 16 µM and the “HAI Titer EC>90” value turned out to be 16.000 µM.

Turning to `CCc1ccc(OC2OC(CO)C(O)C(O)C2O)cc1` (centres unmarked) [Compound 17, 2-(4-ethylphenoxy)-6-(hydroxymethyl)tetrahydropyran-3,4,5-triol], the “HAI Titer EC>90” value is 23.000 µM.
